From patent US20180289709A1, “METHODS OF TREATING INFLAMMATION” (priority 2010, published 2018)
Entries after “also recorded” stand apart in the source; their conditions may differ. Where two headings read alike, the source gives them in different places.

Key:
BMDCs [1] = assay: qPCR of antiviral and inflammatory gene mRNAs in TLR-stimulated BMDCs; conditions: for transcription of mRNAs for antiviral cytokines (Ifnb1, Cxcl10): inhibitor 1 hour prior to stimulation
NF-κB p65 = NF-κB p65 nuclear translocation by confocal microscopy, BMDCs on silicon nanowires; assay type: cell-based, mouse; conditions: nanowire-mediated delivery; LPS 30 min
Experimental: (§1) BMDCs were plated on top of etched silicon nanowires (Si NWs) coated with small molecules (Shalek et al., 2010). After 24 hours, cells were stimulated with LPS or poly(I:C), and then fixed in 4% formaldehyde in PBS (RT, 10 min). After fixation, each sample was permeabilized with 0.25% Triton-X 100 in PBS (RT, 10 min), incubated with Image-iT FX Signal Enhancer (RT, 30 min), and then blocked with 10% goat serum and 0.25% Triton-X 100 in PBS (RT, 1 hour). After washing, the samples were placed in 3% IgG-Free BSA & 0.25% Triton-X 100 in PBS that contained primary antibodies against either IRF3 or NF-κB P65 (1:175 dilution) and then rocked overnight at 4° C. The following day, the samples were washed with PBS and then incubated with an Alexa Fluor labeled secondary antibody (1:250 dilution) in 3% IgG-Free BSA & 0.25% Triton-X 100 in PBS (RT, 60 min). After washing with PBS, the samples were counterstained with 300 ng/mL of DAPI in PBS (RT, 30 min). For each experiment, every stimulus-molecule combination was prepared in triplicate. Once fixed, samples were imaged using an upright confocal microscope (Olympus). For each captured image, the nuclear fraction of the fluorescent protein was calculated after identifying nuclear boundaries using DAPI. Finally, distributions for this quantity across different conditions were compared using a one-way ANOVA analysis.

[2] = mouse, in vivo; cited from earlier work
BMDCs [3] = assay: SILAC-based phosphoproteomics of LPS-stimulated BMDCs pre-treated with BI 2536 versus DMSO
BMDCs [4] = assay: Genome-wide mRNA profiles (microarray) of BMDCs treated with BI 2536 or DMSO before LPS or poly(I:C); assay type: cell-based, mouse; conditions: for antiviral genes among genes repressed by BI 2536 compared to DMSO: at least 3-fold change
[5] = system: primary mouse lung fibroblasts (MLFs); conditions: 1 μM
[6] = system: conventional DCs (GM-CSF-induced BMDCs); assay type: cell-based, mouse
[7] = humans (Mross et al., 2008); cited from earlier work
[8] = system: pDCs (Flt3L-induced BMDCs); assay: qPCR and nCounter mRNA measurement in plasmacytoid DCs stimulated with CpG-A, CpG-B or EMCV; conditions: 1 μM
IRF3 = IRF3 nuclear translocation by confocal microscopy, BMDCs on silicon nanowires; assay type: cell-based, mouse
Experimental: as §1

VSV = assay type: in vivo, mouse; conditions: mice, VSV intra-footpad, 6 hours post-infection
BMDCs [9] = assay: IFN-β ELISA of BMDC culture supernatants; assay type: cell-based, mouse; conditions: BMDC supernatant, LPS 6 h; 1 μM
Experimental: Cell culture supernatants were assayed using a sandwich ELISA kit for mouse IFN-β (PBL Biomedical Laboratories).

BMDCs [10] = assay: BMDC viability (Alamar blue); assay type: cell-based, mouse; conditions: treatment pre-stimulation
BMDCs [11] = assay: Cell cycle analysis (propidium iodide DNA content, flow cytometry); assay type: cell-based, mouse; conditions: propidium iodide DNA content after 0, 6, 12 h treatment
Experimental: Cells were fixed in ethanol, washed, and stained for 30 min at room temperature (RT) with propidium iodide (100 μg/mL) prepared in PBS (calcium- and magnesium-free) supplemented with RNAse A (2 mg/mL; Novagen) and triton X-100 (0.1%). Samples were analyzed for DNA content using an Accuri C6 flow cytometer (Accuri) and data was processed using the FlowJo software (Treestar).

[12] = BMDCs, LPS, increasing amounts of BI 2536, dose-dependent
[13] = DCs stimulated with LPS, poly(I:C) or Pam3CSK4, 1 μM

With `COc1cc2ncn(-c3cc(OCc4ccccc4C(F)(F)F)c(C(N)=O)s3)c2cc1OC` [5-(5,6-Dimethoxy-1H-benzimidazol-1-yl)-3-[[2-(trifluoromethyl)phenyl]methoxy]-2-thiophenecarboxamide] the “transcription of mRNAs for antiviral cytokines (Ifnb1, Cxcl10)” value (BMDCs [1]; BMDCs, LPS) was “abrogate”.
In the case of `CC[C@@H]1C(=O)N(C)c2cnc(Nc3ccc(C(=O)NC4CCN(C)CC4)cc3OC)nc2N1C1CCCC1` [BI 2536], the “NF-κB p65 localization” value (NF-κB p65) is listed as “did not affect”, the tolerability [2] is listed as “good tolerability” and the “Cxcl1 expression (qPCR)” value (BMDCs [1]; BMDCs, LPS, increasing amounts of BI 2536) is listed as “not significantly affected”. For the same molecule, the “Cxcl10 mRNA level (qPCR)” value (BMDCs [1]; [12]) was “reduced”, the “Ifnb1 mRNA level (qPCR)” value (BMDCs [1]; [12]) was “reduced” and the “expression of 12 well-studied antiviral genes (qPCR)” value (BMDCs [1]; [13]) was “strongly inhibited”. The “inflammatory gene expression (qPCR)” value (BMDCs [1]; [13]) was “remained largely unaffected”, the “phosphorylation levels of Jun family cell cycle regulators (Jund)” value (BMDCs [3]; LPS) was “decreased” and the “phosphorylation levels of mitotic kinases Nek6 and Nek7” value (BMDCs [3]; LPS) was “decreased”. For the same molecule, the “phosphorylation levels of proteins in the TBK1/IKK-ε/IRF3 axis” value (BMDCs [3]; LPS) was “unchanged”, the “distinct proteins from which the changed phosphopeptides derive” value (BMDCs [3]; LPS 30 or 120 min, 1 μM) was 413 proteins and the “phosphopeptides with significant (P<0.001) change in level” value (BMDCs [3]; LPS 30 or 120 min, 1 μM) was 510 phosphopeptides. For the same molecule, the “antiviral genes among genes repressed by BI 2536 compared to DMSO” value (BMDCs [4]; LPS) was 67/194, the “unique LPS- and/or poly(I:C)-induced genes repressed” value (BMDCs [4]; downregulated 3-fold upon LPS or poly(I:C) stimulation) was 311 genes and the “antiviral genes among genes repressed by BI 2536 compared to DMSO” value (BMDCs [4]; poly(I:C), P<1×10^−71, hypergeometric test) was 99/193. The “drug-induced toxicity (cell viability, CellTiter-Glo)” value [5] was “not due to drug-induced toxicity”, the “interferon production (Ifnb1 mRNA)” value [5] was “failed to produce interferon” and the “mRNA level of Cxcl1” value [6] was “neither affected”. The “transcription of antiviral genes (Ifnb1 and Cxcl10)” value ([6]; 1 μM) was “inhibited”, the tolerability [7] was “good tolerability” and the “CpG-B-specific signature genes (nCounter)” value ([8]; 6 h) was “a minor effect, if any”. For the same molecule, the “signature genes induced by CpG-A alone or by both CpG-A and -B (nCounter)” value ([8]; 6 h) was “repressed”, the “transcription of mRNAs for Ifnb1, Ifna2 and Cxcl10” value ([8]; CpG-A stimulation or EMCV infection (MOI 10)) was “nearly abrogated” and the “Cxcl1 mRNA” value ([8]; CpG-B) was “moderately increasing”. The “Cxcl10 mRNA” value ([8]; CpG-B) was “decreased”, the IRF3 nuclear translocation (IRF3; nanowire-mediated delivery, poly(I:C) 2 h or LPS 45 min, dose-dependent) was “inhibited” and the “IRF3 translocation, delivery in solution” value (IRF3; poly(I:C) 2 h, lesser extent than nanowire-mediated delivery) was “decreased”. For the same molecule, the “Ifna2 mRNA (type I IFN α2) in popliteal lymph nodes” value (VSV) was “inhibits”, the “VSV replication in the lymph node (VSV RNA levels)” value (VSV) was “rapidly increased” and the “antiviral cytokine mRNA (Ifnb1, Cxcl10) in popliteal lymph nodes” value (VSV; 500 μg i.v. and 50 μg footpad) was “strongly suppressed; also recorded: inhibits”. For the same molecule, the “secreted IFN-β (ELISA)” value (BMDCs [9]) was “reduced; also recorded: strongly inhibits”, the “viability of BMDCs” value (BMDCs [10]) was “neither impacted” and the “cell cycle state of BMDCs” value (BMDCs [11]) was “neither impacted”.
With `COc1ccc(Br)cc1/C=c1\sc2nc(=O)c(C)nn2c1=O` [Poloxipan] the “transcription of mRNAs for antiviral cytokines (Ifnb1, Cxcl10)” value (BMDCs [1]; BMDCs, LPS) was “abrogate”.
